{"source": "patent US10280156B2", "about": "“Heteroaromatic chalcone derivatives and their medical use” (Medizinische Universität Wien, priority 2014, dated 2019)", "key": {"M2-10B4": {"test_system": "M2-10B4", "assay": "Viability test on mouse fibroblast cell line M2-10B4, 48 h", "type": "cell-based", "conditions": "Mus musculus, M210B4, 48 h, 48 h incubation; mouse fibroblast cell line", "description": "(§1) All experiments with hematological cell lines were done using phenol red-free RPMI 1640+L-glutamine (PAA Laboratories) supplemented with 1% PenStrep and 10% FBS gold, except experiments with OCI-Ly7 which were carried out in Gibco IMEM+GlutaMAX and 25 mM HEPES containing 20% FBS gold and 1% PenStrep. Cells were incubated in triplicates with increasing concentrations of the compounds for 48 h, changes in viability were determined using the cell proliferation and cytotoxicity assays EZ4U (Biomedica Group, Austria) and CellTiter-Blue Cell Viability Assay (Promega, Madison, Wis., USA) following instructions of the manufacturers. IC50 values were calculated from two independent experiments using GraphPad Prism 5 software.\nStructurally seen, the small molecule compound 1 represents a typical chalcone scaffold. It is characterized by an ortho-ethoxy-substituted phenyl part as ring A and a 2-naphthyl moiety symbolizing ring B. The focus of the present study was to guide the systematic identification of a growth inhibitor with specificity to neoplastic cells, as cytotoxicity towards healthy cells is mostly associated with adverse effects, which can be related to morbidity and mortality of the patient (Milligan D W et al. Brit J Haematol 2006, 135, 450-474). To discriminate in vitro between structural elements necessary for potent cytotoxicity towards tumor cells which, at the same time, clearly show less activity on normal cells, the compounds were additionally tested on the murine bone marrow fibroblast cell line M2-10B4. This cell line is regularly used as feeder layer when cultured with patient cells providing additional support and survival signals in particular in drug screens (Kurtova A V et al. Blood 2009, 114, 4441-4450).\nInitially, compounds were biologically tested in six concentration steps (0.1 μM; 1 μM; 5 μM; 10 μM; 50 μM; and 100 μM) using the CellTiter-Blue Cell Viability Assay (Promega, Madison, Wis., USA) and an incubation time of 48 hours. […] IC50 values were calculated from at least two independent experiments with 3 replicates each. In order to evaluate the biologic activity of the new compounds, cytotoxicity was compared to that of fludarabine, an already approved drug for the treatment of various B-cell malignancies. […] Differences in IC50 values for the different cell types can be explained by the biological and genetic particularities of each subtype of B-cell Non-Hodgkin lymphoma (Stacchini A et al. Leukemia Res 1999, 23, 127-136; Sambade C et al. Int J Cancer 2006, 118, 555-563; Chang H et al. Leukemia lymphoma 1995, 19, 165-171; Tweeddale M E et al. Blood 1987, 69, 1307-1314; Tweeddale M et al. Blood 1989, 74, 572-578)."}, "CCRF": {"test_system": "CCRF", "assay": "Viability test on CCRF cells", "type": "cell-based, human", "description": "(§2) JURKAT and CCRF-CEM (T-cell acute lymphoblastic leukemia), HL60 and K562 representing acute and chronic myeloid leukemia, respectively, the chronic lymphocytic leukemia cell line MEC-1, and the diffuse large B-cell lymphoma cell line U-2940 were cultured in Gibco RPMI 1640+GlutaMAX (Life Technologies, Carlsbad, Calif., USA) supplemented with 10% fetal bovine serum gold (FBS gold; PAA Laboratories, Pasching, Austria) and 1% PenStrep (100 U/ml penicillin and 100 μg/ml streptomycin; PAA Laboratories), and maintained at 37° C. in humidified atmosphere with 5% CO2. […]\nas §1, with “software. […]” for “software.”"}, "K562": {"test_system": "K562", "assay": "Viability test on K562 cells", "type": "cell-based, human", "conditions": "already at low concentrations, no further increase of toxicity at increasing concentrations", "description": "as §2\nas §1, with “software. […]” for “software.”"}, "SU-DHL6": {"test_system": "SU-DHL6", "assay": "Viability test on SU-DHL6 cells", "type": "cell-based, human", "description": "as §1\nHematologic malignancies are highly heterogeneous in their biology and behavior. This and the fact that some patient groups are resistant to therapy underlines the urgent need for new therapeutic drugs. Compound 15 has therefore been tested on other cell lines representing a variety of hematologic neoplasms: two T-cell acute leukemia cell lines (CCRF, Jurkat), two myeloid leukemia cell lines (HL60, K562), and two additional B-cell lines (SU-DHL6, SU-DHL9). Viability was assessed as described in the methods section above. […] An exception was the chronic myeloid leukemia line K562. […]"}, "[1]": {"test_system": "primary cells from CLL patients", "assay": "Combination treatment of CLL primary cells with compound 15 and a further anticancer agent", "type": "cell-based, human", "description": "Peripheral blood mononuclear cells (PBMCs) of CLL patients were incubated in increasing concentrations of one of the above-mentioned anticancer agents alone or increasing anticancer agent concentrations plus compound 15 in two different concentrations under standard conditions for 48 h before viability was determined (CellTiterBlue, Promega). Primary cells from 5 (ABT199) or 6 patients (CAL101, PCI32765) were included."}}, "note": "pIC50: −log10 of the molar value.", "data": [{"smiles": "CCOc1ccccc1C(=O)/C=C/c1cc2ccccc2[nH]1", "note": "[Compound 15, 1-(2-Ethoxyphenyl)-3-(1H-indole-2-yl)-2-propen-1-one]", "values": [{"measurement": "pIC50", "setting": "M2-10B4", "result": 4.72}, {"measurement": "viability, % of control", "setting": "CCRF; CCRF, at concentrations <1 μM", "result": "less than 30 % of control"}, {"measurement": "pIC50", "setting": "CCRF; Homo sapiens, T-cell acute leukemia, nd = no significant cytotoxic activity up to 100 μM", "result": 7.52}, {"measurement": "viability reduced down to", "setting": "K562", "result": 60, "unit": "%"}, {"measurement": "pIC50", "setting": "SU-DHL6; Homo sapiens, SU-DHL-6, B-cell lymphoma, nd = no significant cytotoxic activity up to 100 μM", "result": 7.22}, {"measurement": "viability, % of control", "setting": "SU-DHL6; SU-DHL6, at concentrations <1 μM", "result": "less than 30 % of control"}, {"measurement": "effect of adding compound 15 to ABT199 on cytotoxicity", "setting": "[1]; combination with ABT199, N=5, 48 h", "result": "synergistic effect"}, {"measurement": "effect of adding compound 15 to CAL101 on cytotoxicity", "setting": "[1]; combination with CAL101 (idelalisib), N=6, 48 h", "result": "synergistic effect"}, {"measurement": "effect of adding compound 15 to PCI32765 on cytotoxicity", "setting": "[1]; combination with PCI32765 (ibrutinib), N=6, 48 h", "result": "synergistic effect"}, {"measurement": "melting point", "result": "124 to 126", "unit": "°C"}]}]}
